The values below come from PubChem BioAssay AID1259407 (Chemical Carcinogenesis Research Information System (CCRIS), 2018).

Activity calls are given as the source filed them. No rule for the calls is given here.

The data set has as its system CCRIS mutagenicity, Ames/micronucleus/aberration tests. Nature of the data set: CCRIS mutagenicity studies.
The mark [1] stands for this setting: Test System: AMES SALMONELLA TYPHIMURIUM, Strain/Indicator: TA98, Metabolic Activation: NONE, Method: PREINCUBATION
[2] abbreviates: Test System: AMES SALMONELLA TYPHIMURIUM, Strain/Indicator: TA98, Metabolic Activation: RAT, LIVER, S-9, PCB, Method: PREINCUBATION
Where [3] appears, read: Test System: AMES SALMONELLA TYPHIMURIUM, Strain/Indicator: TA100, Metabolic Activation: NONE, Method: PREINCUBATION
The mark [4] stands for this setting: Test System: AMES SALMONELLA TYPHIMURIUM, Strain/Indicator: TA100, Metabolic Activation: RAT, LIVER, S-9, PCB, Method: PREINCUBATION
Setting [5] is: Test System: AMES SALMONELLA TYPHIMURIUM, Strain/Indicator: TA98, Metabolic Activation: NONE, Method: STANDARD PLATE.
The mark [6] stands for this setting: Test System: AMES SALMONELLA TYPHIMURIUM, Strain/Indicator: TA100, Metabolic Activation: NONE, Method: STANDARD PLATE.
Setting [7] is: Test System: AMES SALMONELLA TYPHIMURIUM, Strain/Indicator: TA98, Metabolic Activation: RAT, LIVER, S-9, AROCLOR 1254, Method: STANDARD PLATE.
Setting [8] is: Test System: AMES SALMONELLA TYPHIMURIUM, Strain/Indicator: TA100, Metabolic Activation: RAT, LIVER, S-9, AROCLOR 1254, Method: STANDARD PLATE.
[9] abbreviates: Test System: AMES SALMONELLA TYPHIMURIUM, Strain/Indicator: TA1535, Metabolic Activation: NONE, Method: STANDARD PLATE.
Where [10] appears, read: Test System: AMES SALMONELLA TYPHIMURIUM, Strain/Indicator: TA1535, Metabolic Activation: RAT, LIVER, S-9, AROCLOR 1254, Method: STANDARD PLATE.
Setting [11] is: Test System: AMES SALMONELLA TYPHIMURIUM, Strain/Indicator: TA1537, Metabolic Activation: RAT, LIVER, S-9, AROCLOR 1254, Method: STANDARD PLATE.

Turning to `CN(N=O)C(=O)Oc1cccc2ccccc12`, the mutagenic call reads like this: (End Point: IN VITRO CHROMOSOMAL ABERRATIONS, Test System: CHINESE HAMSTER V79-E CELLS, Metabolic Activation: NONE) “active; positive”; (Test System: E. COLI WP2, Strain/Indicator: WP2, Metabolic Activation: NONE, Method: STANDARD PLATE) “active; positive”.
As to `Nc1ccc(Oc2ccc(N)c(N)c2)cc1`, the mutagenic call was “inactive; negative” under setting [1], “active; positive” under setting [2], “inactive; negative” under setting [3] and “active; positive” under setting [4].
For the compound `O=[N+]([O-])c1cc2[nH]c3ccc4ccccc4c3c2c2cccc(O)c12`, the mutagenic call is “active; positive” under setting [5]; “active; positive” (Test System: AMES SALMONELLA TYPHIMURIUM, Strain/Indicator: TA98, Metabolic Activation: RAT, LIVER, S-9, 3-METHYLCHOLANTHRENE, Method: STANDARD PLATE); “active; positive” under setting [6]; “active; positive” (Test System: AMES SALMONELLA TYPHIMURIUM, Strain/Indicator: TA100, Metabolic Activation: RAT, LIVER, S-9, 3-METHYLCHOLANTHRENE, Method: STANDARD PLATE).
In the case of `c1ccc2c(c1)CC[C@H]1CCC[C@@H]3O[C@]213`, the mutagenic call is, setting by setting: under setting [5], “inactive; negative”; under setting [6], “inactive; negative”.
For `CCN(CC)c1cc(NC(C)=O)c(N=Nc2ccc([N+](=O)[O-])cc2)cc1OC`, the mutagenic call is “active; positive” under setting [5]; “active; positive” under setting [7]; “inactive; negative” under setting [6]; “active; positive” under setting [8]; “inactive; negative” under setting [9]; “active; positive” under setting [10]. Also, the mutagenic call by setting is: (Test System: AMES SALMONELLA TYPHIMURIUM, Strain/Indicator: TA1537, Metabolic Activation: NONE, Method: STANDARD PLATE) “inactive; negative”; under setting [11], “active; positive”; (Test System: MOUSE LYMPHOMA, Strain/Indicator: L5178Y (TK+/TK-), Metabolic Activation: NONE, Method: SUSPENSION/PLATE) “inactive; negative”; (Test System: MOUSE LYMPHOMA, Strain/Indicator: L5178Y (TK+/TK-), Metabolic Activation: RAT, LIVER, S-9, AROCLOR 1254, Method: SUSPENSION/PLATE) “inactive; negative”; (Test System: UDS RAT HEPATOCYTES, Strain/Indicator: THY INCORP, Metabolic Activation: NONE, Method: AUTORADIOGRAPHY) “inactive; negative”.
Turning to `COc1ccc2c(c1O)C(=O)c1ccccc1C2=O`, the mutagenic call was “inactive; negative” under setting [1], “inactive; negative” under setting [2], “inactive; negative” under setting [3] and “inactive; negative” under setting [4].
As to `O=[N+]([O-])c1ccc2ccc3c4c(cc5ccc1c2c53)CCC=C4`, the mutagenic call (Test System: AMES SALMONELLA TYPHIMURIUM, Strain/Indicator: TA98(1,8-DNP6), Metabolic Activation: NONE, Method: STANDARD PLATE) is “active; positive”; the mutagenic call (Test System: AMES SALMONELLA TYPHIMURIUM, Strain/Indicator: TA98(1,8-DNP6), Metabolic Activation: RAT, LIVER, S-9, AROCLOR 1254, Method: STANDARD PLATE) is “active; positive”; the mutagenic call (Test System: AMES SALMONELLA TYPHIMURIUM, Strain/Indicator: TA98(NR), Metabolic Activation: NONE, Method: STANDARD PLATE) is “active; positive”; the mutagenic call (Test System: AMES SALMONELLA TYPHIMURIUM, Strain/Indicator: TA98(NR), Metabolic Activation: RAT, LIVER, S-9, AROCLOR 1254, Method: STANDARD PLATE) was “active; positive”; the mutagenic call under setting [5] is “active; positive”; the mutagenic call under setting [7] was “active; positive”. Also, the mutagenic call was “inactive; negative” under setting [6] and “active; positive” under setting [8].
Turning to `CC(=O)ON(C(C)=O)c1ccc(/C=C/c2ccccc2)cc1`, the mutagenic call (Test System: CHINESE HAMSTER V-79, Strain/Indicator: V-79/6-THIOGUANINE, Metabolic Activation: NONE, Method: STANDARD PLATE) is “active; positive”.
Consider `Cc1cc(O)c2c(O)c3c(O)cccc3cc2c1`, for which the mutagenic call reads like this: under setting [5], “inactive; negative”; under setting [7], “inactive; negative”; under setting [6], “inactive; negative”; under setting [8], “inactive; negative”; under setting [9], “inactive; negative”; under setting [10], “inactive; negative”. Also, the mutagenic call under setting [11] is “active; positive”; the mutagenic call (Test System: AMES SALMONELLA TYPHIMURIUM, Strain/Indicator: TA1538, Metabolic Activation: NONE, Method: STANDARD PLATE) was “inactive; negative”; the mutagenic call (Test System: AMES SALMONELLA TYPHIMURIUM, Strain/Indicator: TA1538, Metabolic Activation: RAT, LIVER, S-9, AROCLOR 1254, Method: STANDARD PLATE) was “inactive; negative”.
